Experimental data: patent publication US8912179B2, “Heterocyclyl compounds as histamine H3 receptor ligands” (Suven Life Sciences Limited, priority 2010, dated 2014)
Structures can show the parent of a compound that is named as a salt.

biological target: Histamine H3 receptor (UniProt Q9Y5N1); assay: Binding assay for human or rat histamine H3 receptor ([3H] R-α-methylhistamine); conditions: [3H] R-α-methylhistamine 3.0 nM; rat brain frontal cortex or recombinant human receptor in CHO cells (not specified which)
Method: Compounds can be evaluated according to the following procedures.
• Receptor source: Rat brain frontal cortex or recombinant human cDNA expressed in CHO cells • Radioligand: [^3H] R-α-methylhistamine • Final ligand concentration—[3.0 nM] • Non-specific determinant: R-α-methylhistamine (100 uM) • Reference compound: R-α-methylhistamine • Positive control: R-α-methylhistamine Incubation Conditions:
Increasing concentrations of test compounds or standard were incubated with membrane receptors and radioligand in 5 mM MgCl2 and 50 mM TRIS-HCl (pH 7.4) for 60 minutes at room temperature. The reaction was terminated by rapid vacuum filtration onto the glass fiber filters. Radioactivity trapped onto the filters was determined and compared to the control values in order to ascertain any interactions of the test compound(s) with either cloned human or rat receptor binding site.

Ki [nM]	Compound
1.62	NC(=O)c1ccc(N2CCc3nc(OC4CCN(C5CCC5)CC4)sc3C2)nc1 [Example 31, 6-[2-(1-Cyclobutyl-piperidin-4-yloxy)-6,7-dihydro-4H-thiazolo[5,4-c]pyridin-5-yl]-nicotinamide]
32.5	O=C(c1cccnc1)N1CCc2nc(OC3CCN(C4CCC4)CC3)sc2C1 [Example 26, [2-(1-Cyclobutyl-piperidin-4-yloxy)-6,7-dihydro-4H-thiazolo[5,4-c]pyridin-5-yl]-pyridin-3-yl-methanone tartrate]
12.3	O=C(CC1CC1)N1CCc2nc(OC3CCN(C4CCC4)CC3)sc2C1 [Example 19, 1-[2-(1-Cyclobutyl-piperidin-4-yloxy)-6,7-dihydro-4H-thiazolo[5,4-c]pyridin-5-yl]-2-cyclopropyl-ethanone]
4.6	O=C(C1CCCC1)N1CCc2nc(OC3CCN(C4CCC4)CC3)sc2C1 [Example 32, [2-(1-Cyclobutyl-piperidin-4-yloxy)-6,7-dihydro-4H-thiazolo[5,4-c]pyridin-5-yl]-cyclopentyl-methanone tartrate]
35.3	O=C(c1ccc(C(F)(F)F)nc1)N1CCc2nc(OC3CCN(C4CCC4)CC3)sc2C1 [Example 25, [2-(1-Cyclobutyl-piperidin-4-yloxy)-6,7-dihydro-4H-thiazolo[5,4-c]pyridin-5-yl]-(2-trifluoromethyl-pyridin-5-yl)-methanone]
5.43	O=C(C1CC1)N1CCc2nc(OC3CCN(C4CC4)CC3)sc2C1 [Example 10, Cyclopropyl-[2-(1-cyclopropyl-piperidin-4-yloxy)-6,7-dihydro-4H-thiazolo[5,4-c]pyridin-5-yl]-methanone tartrate]
23.6	O=C(C1CC1)N1CCCC(Oc2nc3c(s2)CN(C2CCC2)CC3)C1 (stereo not drawn) [Example 14, [3-(5-Cyclobutyl-,6,7-dihydro-4H-thiazolo[5,4-c]pyridin-2-yloxy)-piperidin-1-yl]-cyclopropyl-methanone tartrate]
7.4	O=S(=O)(c1ccccc1F)N1CCc2nc(OC3CCN(C4CCC4)CC3)sc2C1 [Example 20, 2-(1-Cyclobutyl-piperidin-4-yloxy)-5-(2-fluoro-benzenesulfonyl)-,6,7-dihydro-4H-thiazolo[5,4-c]pyridine tartrate]
15.4	O=C(C1CC1)N1CCCc2nc(OC3CCN(C4CCC4)CC3)sc21 [Example 33, [2-(1-Cyclobutyl-piperidin-4-yloxy)-6,7-dihydro-5H-thiazolo[5,4-b]pyridin-4-yl]-cyclopropyl-methanone tartrate]
11.3	O=C(N1CCOCC1)N1CCc2nc(OC3CCN(C4CCC4)CC3)sc2C1 [Example 29, [2-(1-Cyclobutyl-piperidin-4-yloxy)-6,7-dihydro-4H-thiazolo[5,4-c]pyridin-5-yl]-morpholin-4-yl-methanone tartrate]
13.4	O=C(c1ccccc1F)N1CCc2nc(OC3CCN(C4CCC4)CC3)sc2C1 [Example 6, [2-(1-Cyclobutyl-piperidin-4-yloxy)-6,7-dihydro-4H-thiazolo[5,4-c]pyridin-5-yl]-(2-fluoro-phenyl)-methanone tartrate]
4.19	O=C(N1CCCCC1)N1CCc2nc(OC3CCN(C4CCC4)CC3)sc2C1 [Example 30, [2-(1-Cyclobutyl-piperidin-4-yloxy)-6,7-dihydro-4H-thiazolo[5,4-c]pyridin-5-yl]-piperidin-1-yl-methanone hydrochloride]
26.7	CCC(=O)NC1CCc2nc(OC3CCN(C4CCC4)CC3)sc2C1 (stereo not drawn) [Example 3, N-[2-(1-Cyclobutyl-piperidin-4-yloxy)-4,5,6,7-tetrahydro-benzothiazol-6-yl]-propionamide]
2	O=C(C1CC1)N1CCc2nc(OC3CCC(C4CCC4)CC3)sc2CC1 (stereo not drawn) [Example 2, [2-(4-Cyclobutyl-cyclohexyloxy)-4,5,7,8-tetrahydro-thiazolo[5,4-d]azepin-6-yl]-cyclopropyl-methanone tartrate]
0.75	c1cncc(N2CCc3nc(OC4CCN(C5CCC5)CC4)sc3C2)c1 [Example 27, 2-(1-Cyclobutyl-piperidin-4-yloxy)-5-pyridin-3-yl-,6,7-dihydro-4H-thiazolo[5,4-c]pyridine tartrate]
8.44	O=C(CN1CCOCC1)N1CCc2nc(OC3CCN(C4CCC4)CC3)sc2C1.O=C(O)C(O)C(O)C(=O)O [Example 12, 1-[2-(1-Cyclobutyl-piperidin-4-yloxy)-6,7-dihydro-4H-thiazolo[5,4-c]pyridin-5-yl]-2-morpholin-4-yl-ethanone tartrate]
7.69	CC(C)N1CCC(Oc2nc3c(s2)CN(C(=O)C2CCC2)CC3)CC1 [Example 8, Cyclobutyl-[2-(1-isopropyl-piperidin-4-yloxy)-6,7-dihydro-4H-thiazolo[5,4-c]pyridin-5-yl]-methanone]
21.2	COc1ccc(C(=O)N2CCc3nc(OC4CCN(C5CCC5)CC4)sc3C2)cc1 [Example 17, [2-(1-Cyclobutyl-piperidin-4-yloxy)-6,7-dihydro-4H-thiazolo[5,4-c]pyridin-5-yl]-(4-methoxy-phenyl)-methanone tartrate]
22.6	CS(=O)(=O)N1CCc2nc(OC3CCN(C4CCC4)CC3)sc2C1 [Example 21, 2-(1-Cyclobutyl-piperidin-4-yloxy)-5-methanesulfonyl-,6,7-dihydro-4H-thiazolo[5,4-c]pyridine]
12	O=C(C1CCC1)N1CCc2nc(OC3CCN(C4CC4)CC3)sc2C1 [Example 11, Cyclobutyl-[2-(1-cyclopropyl-piperidin-4-yloxy)-6,7-dihydro-4H-thiazolo[5,4-c]pyridin-5-yl]-methanone tartrate]
10.5	CC(C)CC(=O)N1CCc2nc(OC3CCN(C4CCC4)CC3)sc2C1 [Example 7, 1-[2-(1-Cyclobutyl-piperidin-4-yloxy)-6,7-dihydro-4H-thiazolo[5,4-c]pyridin-5-yl]-3-methyl-butan-1-one tartrate]
0.3	FC(F)(F)c1ccc(N2CCc3nc(OC4CCN(C5CCC5)CC4)sc3C2)cn1 [Example 23, 2-(1-Cyclobutyl-piperidin-4-yloxy)-5-(2-trifluoromethyl-pyridin-5-yl)-,6,7-dihydro-4H-thiazolo[5,4-c]pyridine]
15.6	CC(C)N1CCC(Oc2nc3c(s2)CCN(C(=O)C2CC2)CC3)CC1 [Example 34, Cyclopropyl-[2-(1-isopropyl-piperidin-4-yloxy)-4,5,7,8-tetrahydro-thiazolo[5,4-d]azepin-6-yl]-methanone tartrate]
33.5	O=C(c1ccncc1)N1CCc2nc(OC3CCN(C4CCC4)CC3)sc2C1 [Example 16, [2-(1-Cyclobutyl-piperidin-4-yloxy)-6,7-dihydro-4H-thiazolo[5,4-c]pyridin-5-yl]-pyridin-4-yl-methanone tartrate]
9.94	CC(C)N1CCC(Oc2nc3c(s2)CN(C(=O)C2CC2)CC3)CC1 [Example 9, Cyclopropyl-[2-(1-isopropyl-piperidin-4-yloxy)-6,7-dihydro-4H-thiazolo[5,4-c]pyridin-5-yl]-methanone tartrate]
6.96	O=C(CN1CCCCC1)N1CCc2nc(OC3CCN(C4CCC4)CC3)sc2C1 [Example 18, 1-[2-(1-Cyclobutyl-piperidin-4-yloxy)-6,7-dihydro-4H-thiazolo[5,4-c]pyridin-5-yl]-2-piperidin-1-yl-ethanone tartrate]

tested on: not listed separately; assay: Rodent pharmacokinetic study; format: in vivo, Male Wistar rats; conditions: whole blood; Wistar male rat, intravenous, 1 mg/kg, water, blood
Method: Male Wistar rats (230-280 grams) obtained from NIN (National Institute of Nutrition, Hyderabad, India) were used as an experimental animal. Three animals were housed in each cage. Animals were kept fasted over night and maintained on a 12 hours light/dark cycle. Three rats were dosed New chemical entity (NCE) orally (3 or 10 mg/kg) and intravenously (1 or 5 mg/kg) on day 0 and day 2.
At each time point blood was collected by jugular vein. Blood was stored at 2-8° C. until analysis. The concentrations of the NCE compound in blood were determined using LC-MS/MS method. Schedule time points: Pre dose 0.08, 0.25, 0.5, 1, 2, 4, 6, 8 and 24 hours after dosing (n=3). The NCE compounds were quantified in blood by partially validated LC-MS/MS method using acetonitrile precipitation technique. NCE compounds were quantified in the calibration range of 1-2000 ng/mL in blood. Study samples were analyzed using calibration samples in the batch and quality control samples spread across the batch.
Pharmacokinetic parameters were calculated by non-compartmental model using software WinNonlin version 5.0.1.

AUC(0-t) [ng·h/mL]	Cmax [ng/mL]	Tmax [h]	half-life [h]	Compound
334 ± 39	237 ± 38	0.08	2.86 ± 0.82	O=C(CN1CCOCC1)N1CCc2nc(OC3CCN(C4CCC4)CC3)sc2C1.O=C(O)C(O)C(O)C(=O)O [Example 12, 1-[2-(1-Cyclobutyl-piperidin-4-yloxy)-6,7-dihydro-4H-thiazolo[5,4-c]pyridin-5-yl]-2-morpholin-4-yl-ethanone tartrate]

same assay, conditions: whole blood; Wistar male rat, per oral 3 mg/kg vs intravenous 1 mg/kg

bioavailability [%]	Compound
43 ± 17	O=C(CN1CCOCC1)N1CCc2nc(OC3CCN(C4CCC4)CC3)sc2C1.O=C(O)C(O)C(O)C(=O)O [Example 12, 1-[2-(1-Cyclobutyl-piperidin-4-yloxy)-6,7-dihydro-4H-thiazolo[5,4-c]pyridin-5-yl]-2-morpholin-4-yl-ethanone tartrate]

same assay, conditions: whole blood; Wistar male rat, per oral, 3 mg/kg, water, blood

AUC(0-t) [ng·h/mL]	Cmax [ng/mL]	Tmax [h]	half-life [h]	Compound
417 ± 120	151 ± 18	0.83 ± 0.29	2.85 ± 0.38	O=C(CN1CCOCC1)N1CCc2nc(OC3CCN(C4CCC4)CC3)sc2C1.O=C(O)C(O)C(O)C(=O)O [Example 12, 1-[2-(1-Cyclobutyl-piperidin-4-yloxy)-6,7-dihydro-4H-thiazolo[5,4-c]pyridin-5-yl]-2-morpholin-4-yl-ethanone tartrate]

tested on: rats; assay: Morris water maze, reversal of scopolamine induced amnesia; format: in vivo, rat; conditions: p.o., dose giving reversal
Method: The cognition-enhancing properties of compounds of this invention were estimated by using this model.
The water maze apparatus consisted of a circular pool (1.8 m diameter, 0.6 m high) constructed in black Perspex (TSE systems, Germany) filled with water (24±2° C.) and positioned underneath a wide-angled video camera to track animal. The 10 cm^2 perspex platform, lying 1 cm below the water surface, was placed in the centre of one of the four imaginary quadrants, which remained constant for all rats. The black Perspex used in the construction of the maze and platform offered no intramaze cues to guide escape behavior. By contrast, the training room offered several strong extramaze visual cues to aid the formation of the spatial map necessary for escape learning. An automated tracking system, [Videomot 2 (5.51), TSE systems, Germany] was employed. This program analyzes video images acquired via a digital camera and an image acquisition boards that determined path length, swim speed and the number of entries and duration of swim time spent in each quadrant of the water maze.

Compound	Reversal of Scopolamine Induced amnesia
O=C(CN1CCOCC1)N1CCc2nc(OC3CCN(C4CCC4)CC3)sc2C1.O=C(O)C(O)C(O)C(=O)O [Example 12, 1-[2-(1-Cyclobutyl-piperidin-4-yloxy)-6,7-dihydro-4H-thiazolo[5,4-c]pyridin-5-yl]-2-morpholin-4-yl-ethanone tartrate]	≧20 mg/kg, p.o.
